Among the data in patent US10532995B2, “Substituted pyrazole compounds as serine protease inhibitors” (VERSEON CORPORATION, priority 2015, dated 2020) are IC50 values, retold here.

SMILES strings stand for the structures. Counter-ions that a name gives are not always drawn.

The experiment concerns the target T1, Human thrombin (Homo sapiens, UniProt P00734).
T1 construct: purchased Haematologic Technologies Inc
Kind of experiment: Thrombin protease activity inhibition, chromogenic substrate S-2238. The class given is biochemical. The note with it: 3 nM thrombin, 125 μM S-2238, 10 min pre-incubation, RT. How it is done:
The thrombin activity reported herein (e.g., Table A) was obtained as follows. […] Thrombin was assayed in buffer containing 0.05 M Tris (pH 7.4), 0.015 M NaCl and 0.01% PEG-8000. The final concentration of enzyme used was 3 nM thrombin. […] All assays were performed in 96-well microtiter plates at room temperature (RT). […] Inhibitor IC50 values were determined by adding test compound as ten point, three-fold serial dilutions in buffer solution, as known in the art. The plate was read at 10 minutes after substrate addition. The IC50 was calculated by plotting the percent (%) inhibition against compound concentration and fitting the data to a constrained four parameter sigmoidal curve, as known in the art.

In general, IC50 refers to the midpoint of a concentration-inhibition curve. In turn, `O=C(c1ccsc1)n1nc(C2CCOCC2)cc1NCc1ccc(Cl)s1` [Entry 181, N-[(5-chlorothiophen-2-yl)methyl]-3-(oxan-4-yl)-1-(thiophene-3-carbonyl)-1H-pyrazol-5-amine] displayed an IC50 of 0.1 to 1 µM.
Compound `C=CCOC(=O)N1CCCC(c2cc(NCc3ccc(Cl)s3)[nH]n2)CC1` (centres unmarked) [Entry 265, prop-2-en-1-yl 4-(5-[(5-chlorothiophen-2-yl)methyl]amino-1H-pyrazol-3-yl)azepane-1-carboxylate] showed an IC50 of over 100 µM.
Next, `C=CCOC(=O)N1CCC(c2n[nH]c(NCc3ccc(Cl)s3)c2C#N)CC1` [Entry 268, prop-2-en-1-yl 4-(5-[(5-chlorothiophen-2-yl)methyl]amino-4-cyano-1H-pyrazol-3-yl)piperidine-1-carboxylate]: 1 to 10 µM.
In the case of `COCC(C)(C)C(=O)n1nc(C2(C)CCCN(C(=O)OC(C)(C)C)C2)cc1NCc1ccc(Cl)s1` (centres unmarked) [Entry 284, tert-butyl 3-(5-[(5-chlorothiophen-2-yl)methyl]amino-1-(3-methoxy-2,2-dimethylpropanoyl)-1H-pyrazol-3-yl)-3-methylpiperidine-1-carboxylate], the IC50 lay in the range of 0.1 to 1 µM.
The value for `CC(C)(C)OC(=O)N1CCCC(c2cc(NCc3ccc(Cl)s3)n(C(=O)C3(C)CCOCC3)n2)C1` (centres unmarked) [Entry 287, tert-butyl 3-(5-[(5-chlorothiophen-2-yl)methyl]amino-1-(4-methyloxane-4-carbonyl)-1H-pyrazol-3-yl)piperidine-1-carboxylate] was under 0.1 µM.
The value for `CC1CCCC(C)C1C(=O)n1nc(C2CCNCC2)cc1NCc1ccc(Cl)s1` (centres unmarked) [Entry 151, N-[(5-chlorothiophen-2-yl)methyl]-1-(2,6-dimethylcyclohexanecarbonyl)-3-(piperidin-4-yl)-1H-pyrazol-5-amine hydrochloride] was 1 to 10 µM; that for `C=CCOC(=O)N1CCN(S(C)(=O)=O)CC1c1cc(NCc2ccc(Cl)s2)[nH]n1` (centres unmarked) [Entry 252, prop-2-en-1-yl 2-(5-[(5-chlorothiophen-2-yl)methyl]amino-1H-pyrazol-3-yl)-4-methanesulfonylpiperazine-1-carboxylate] was over 100 µM.
`COc1ccc(C(=O)n2nc(C3CCNCC3)cc2NCc2ccc(Cl)s2)c(OC)c1` [Entry 147, N-[(5-chlorothiophen-2-yl)methyl]-1-(2,4-dimethoxybenzoyl)-3-(piperidin-4-yl)-1H-pyrazol-5-amine] displayed an IC50 of 1 to 10 µM.
In turn, `C=CCOC(=O)N1CCCC(c2cc(NCc3ccc(Cl)s3)n(C(=O)c3cscn3)n2)CC1` (centres unmarked) [Entry 260, prop-2-en-1-yl 4-(5-[(5-chlorothiophen-2-yl)methyl]amino-1-(1,3-thiazole-4-carbonyl)-1H-pyrazol-3-yl)azepane-1-carboxylate] gave an IC50 of under 0.1 µM.
`COc1ccccc1C(=O)n1nc(C2CNC2)cc1NCc1ccc(Cl)s1` [Entry 127, 3-(azetidin-3-yl)-N-[(5-chlorothiophen-2-yl)methyl]-1-(2-methoxybenzoyl)-1H-pyrazol-5-amine hydrochloride] yielded an IC50 of 10 to 100 µM.
The value for `CC(C)(C)OC(=O)N1CCCC(C)(c2cc(NCc3ccc(Cl)s3)n(C(=O)c3ccsc3)n2)C1` (centres unmarked) [Entry 288, tert-butyl 3-(5-[(5-chlorothiophen-2-yl)methyl]amino-1-(thiophene-3-carbonyl)-1H-pyrazol-3-yl)-3-methylpiperidine-1-carboxylate] was under 0.1 µM; that for `C=CCOC(=O)N1C2CCC1CC(c1cc(NCc3ccc(Cl)s3)n(C(=O)C(C)(C)C)n1)C2` (centres unmarked) [Entry 254, prop-2-en-1-yl 3-(5-[(5-chlorothiophen-2-yl)methyl]amino-1-(2,2-dimethylpropanoyl)-1H-pyrazol-3-yl)-8-azabicyclo[3.2.1]octane-8-carboxylate] was under 0.1 µM.
Next, `CN(C)S(=O)(=O)N1CCC(c2cc(NCc3ccc(Cl)s3)n(C(=O)C(C)(C)C)n2)CC1` [Entry 133, 4-(5-[(5-chlorothiophen-2-yl)methyl]amino-1-(2,2-dimethylpropanoyl)-1H-pyrazol-3-yl)-N,N-dimethylpiperidine-1-sulfonamide]: 0.1 to 1 µM.
The value for `FC(F)(F)CN1CCC(c2cc(NCc3ccc(Cl)s3)[nH]n2)CC1` [Entry 198, N-[(5-chlorothiophen-2-yl)methyl]-3-[1-(2,2,2-trifluoroethyl)piperidin-4-yl]-1H-pyrazol-5-amine] was over 100 µM.
As for `C=CCOC(=O)N1CCC(c2n[nH]c(NCc3ccc(Cl)s3)c2C)CC1` [Entry 271, prop-2-en-1-yl 4-(5-[(5-chlorothiophen-2-yl)methyl]amino-4-methyl-1H-pyrazol-3-yl)piperidine-1-carboxylate], the IC50 was over 100 µM.
With `C=CCOC(=O)N1CCN(S(=O)(=O)N2CCOCC2)CC1c1cc(NCc2ccc(Cl)s2)[nH]n1` (centres unmarked) [Entry 250, prop-2-en-1-yl 2-(5-[(5-chlorothiophen-2-yl)methyl]amino-1H-pyrazol-3-yl)-4-(morpholine-4-sulfonyl)piperazine-1-carboxylate], the IC50 is over 100 µM.
Next, `C=CCOC(=O)N1CCC(c2cc(NCc3ccc(Cl)s3)[nH]n2)C1` (centres unmarked) [Entry 259, prop-2-en-1-yl 3-(5-[(5-chlorothiophen-2-yl)methyl]amino-1H-pyrazol-3-yl)pyrrolidine-1-carboxylate]: over 100 µM; `O=C(c1cccc2c1OCCO2)n1nc(C2CCNCC2)cc1NCc1ccc(Cl)s1` [Entry 143, N-[(5-chlorothiophen-2-yl)methyl]-1-(2,3-dihydro-1,4-benzodioxine-5-carbonyl)-3-(piperidin-4-yl)-1H-pyrazol-5-amine hydrochloride]: 1 to 10 µM.
The value for `CC(=O)N1CCC(c2cc(NCc3ccc(Cl)s3)n(C(=O)c3ccsc3)n2)CC1` [Entry 102, 1-[4-(5-[(5-chlorothiophen-2-yl)methyl]amino-1-(thiophene-3-carbonyl)-1H-pyrazol-3-yl)piperidin-1-yl]ethan-1-one] was 0.1 to 1 µM; that for `CS(=O)(=O)N1CCC(c2cc(NCc3ccc(Cl)s3)[nH]n2)C1` (centres unmarked) [Entry 175, N-[(5-chlorothiophen-2-yl)methyl]-3-(1-methanesulfonylpyrrolidin-3-yl)-1H-pyrazol-5-amine] was over 100 µM.
In turn, `O=C(c1ccoc1)n1nc(C2CCN(Cc3ccccc3)C2)cc1NCc1ccc(Cl)s1` (centres unmarked) [Entry 114, 3-(1-benzylpyrrolidin-3-yl)-N-[(5-chlorothiophen-2-yl)methyl]-1-(furan-3-carbonyl)-1H-pyrazol-5-amine] had an IC50 of 1 to 10 µM.
The value for `O=C(N1CCC(c2n[nH]c(NCc3ccc(Cl)s3)c2F)CC1)C1(O)CC1` [Entry 104, 1-[4-(5-[(5-chlorothiophen-2-yl)methyl]amino-4-fluoro-1H-pyrazol-3-yl)piperidine-1-carbonyl]cyclopropan-1-ol] was 10 to 100 µM; that for `C=CCOC(=O)N1CCN(C(=O)N2CCOCC2)CC1c1cc(NCc2ccc(Cl)s2)[nH]n1` (centres unmarked) [Entry 249, prop-2-en-1-yl 2-(5-[(5-chlorothiophen-2-yl)methyl]amino-1H-pyrazol-3-yl)-4-(morpholine-4-carbonyl)piperazine-1-carboxylate] was over 100 µM.
Next, `CC1(c2cc(NCc3ccc(Cl)s3)n(C(=O)c3ccsc3)n2)CCCNC1` (centres unmarked) [Entry 178, N-[(5-chlorothiophen-2-yl)methyl]-3-(3-methylpiperidin-3-yl)-1-(thiophene-3-carbonyl)-1H-pyrazol-5-amine]: 0.1 to 1 µM.
Take `CC1(C(=O)n2nc(C3CCN(C(=O)N4CCOCC4)CC3)cc2NCc2ccc(Cl)s2)CCC(O)CC1` (centres unmarked) [Entry 139, 4-(5-[(5-chlorothiophen-2-yl)methyl]amino-3-[1-(morpholine-4-carbonyl)piperidin-4-yl]-1H-pyrazole-1-carbonyl)-4-methylcyclohexan-1-ol]: the IC50 was under 0.1 µM.
As to `C=CCOC(=O)N1CCN(C(=O)CN2CCOCC2)CC1c1cc(NCc2ccc(Cl)s2)[nH]n1` (centres unmarked) [Entry 251, prop-2-en-1-yl 2-(5-[(5-chlorothiophen-2-yl)methyl]amino-1H-pyrazol-3-yl)-4-[2-(morpholin-4-yl)acetyl]piperazine-1-carboxylate], the concentration for half-maximal inhibition (IC50) was over 100 µM.
The value for `CS(=O)(=O)N1CC(c2cc(NCc3ccc(Cl)s3)[nH]n2)C1` [Entry 172, N-[(5-chlorothiophen-2-yl)methyl]-3-(1-methanesulfonylazetidin-3-yl)-1H-pyrazol-5-amine] was over 100 µM; that for `CC(C)(C)C(=O)n1nc(C2CCN(CC(=O)O)CC2)cc1NCc1ccc(Cl)s1` [Entry 109, 2-[4-(5-[(5-chlorothiophen-2-yl)methyl]amino-1-(2,2-dimethylpropanoyl)-1H-pyrazol-3-yl)piperidin-1-yl]acetic acid] was 0.1 to 1 µM; that for `FC(F)(F)c1cccc(CN2CCC(c3cc(NCc4ccc(Cl)s4)[nH]n3)CC2)n1` [Entry 176, N-[(5-chlorothiophen-2-yl)methyl]-3-(1-[6-(trifluoromethyl)pyridin-2-yl]methylpiperidin-4-yl)-1H-pyrazol-5-amine] was over 100 µM.
Compound `O=S(=O)(N1CCOCC1)N1CCC(c2cc(NCc3ccc(Cl)s3)[nH]n2)CC1` [Entry 207, N-[(5-chlorothiophen-2-yl)methyl]-3-[1-(morpholine-4-sulfonyl)piperidin-4-yl]-1H-pyrazol-5-amine] came in with an IC50 of over 100 µM.
Compound `CC(C)(C)OC(=O)N1CCC(C)(c2cc(NCc3ccc(Cl)s3)n(C(=O)C(C)(C)C)n2)CC1` [Entry 291, tert-butyl 4-(5-[(5-chlorothiophen-2-yl)methyl]amino-1-(2,2-dimethylpropanoyl)-1H-pyrazol-3-yl)-4-methylpiperidine-1-carboxylate] yielded an IC50 of under 0.1 µM.
With `Clc1ccc(CNc2cc(C3CCNC3)n[nH]2)s1` (centres unmarked) [Entry 190, N-[(5-chlorothiophen-2-yl)methyl]-3-(pyrrolidin-3-yl)-1H-pyrazol-5-amine], the IC50 was in the range of 1 to 10 µM.
